# Results reported in US10780092B2, “Fused pyrazine derivatives useful as soluble guanylate cyclase stimulators” (Merck Sharp & Dohme Corp., priority 2016, dated 2020).
# Columns and labels:
# [1] = biological target: human recombinant sGC enzyme (Homo sapiens (Human), UniProt Q02108+Q02153); test: SEC competition binding assay with [3H] Compound B radioligand; conditions: displacement of 1.6 nM [3H] Compound B, 24 h at 37° C.
# Method: The binding potencies of sGC compounds to the human recombinant sGC enzyme were determined in a Size Exclusion Chromatography (SEC) competition binding assay using [^3H] Compound B as the radioligand. [^3H] Compound B was prepared using a standardardized tritium exchange procedure. The parent (non-labeled) molecule was first iodinated then a Pd-catalyzed iodine to tritium exchange provided the labeled compound.
# Method: The binding buffer was composed of 50 mM triethanolamine pH 7.4, 3 mM MgCl2, 0.025% BSA, 2 mM dithiothreitol (DTT), 300 μM DETA/NO and 400 μM GTP. Assays were conducted in 96-well plates in a total volume of 200 μL. Recombinant human sGC protein (40 ng) was incubated with 1.6 nM [^3H] Compound B for 24 h at 37° C. in the presence and absence of various concentrations of sGC testing compounds delivered as DMSO solutions to give a total of 1% organic solvent content. Non-specific binding was defined by competition with 1 μM of Compound B. After the incubation period, the binding mixtures were loaded onto the gel-filtration plate (ThermoFischer Cat. No. 89808) pre-equilibrated with binding buffer and spun at 1000×g for 3 min at 4° C. on a Bench top centrifuge. The collected eluates in White Frame Clear Well Isoplates (Perkin Elmer Cat #6005040) received 100 μl of UltimaGold scintillation cocktail. The sealed plates were shaken vigorously and span, and counted after 6 hs with a Wallac Microbeta TriLux 1450 LSC & Luminescence Counter (Perkin Elmer). Data from competition experiments were analyzed to determine Ki values using one site—fit Ki equation.
# sGC α1/β1 heterodimer = sGC α1/β1 heterodimer (Homo sapiens (Human), UniProt Q02108+Q02153); test: Cell-based sGC functional assay (CASA assay), cGMP by HTRF; conditions: CHO-K1/sGC cells; for Emax: CHO-K1, cGMP production as percentage of maximum of compound A (set to 100%), read-out: % Activation; for EC50: inflection point of cGMP production, 4P fit, read-out: IP
# Excerpt: Cell-Based sGC Functional Assay (Cyclic GMP Assay for sGC Activator: CASA Assay)
# Soluble guanylate cyclase (sGC) is a heme-containing enzyme that converts GTP to secondary messenger cGMP. Increases in cGMP levels affect several physiological processes including vasorelaxation through multiple downstream pathways. […] Heme-dependent activators (HDAs) preferentially target sGC containing a ferrous heme group. To determine the effect of sGC activators on enzyme activity, the CASA assay was developed to monitor the generation of cGMP in a cell line that stably expresses the heterodimeric sGC protein.
# A CHO-K1 cell line stably expressing the sGC α1/β1 heterodimer was generated using a standard transfection protocol. The cDNA's encoding human sGC α1 and β1 were cloned in pIRES hyg and pIRES neo respectively using standard molecular biology techniques. The plasmids pIRES hyg and pIRES neo plasmids were obtained from Clontech. CHO-K1 cells were transfected with plasmids pIREShyg-hsGCα1 and pIRESneo-hsGCβ1 simultaneously using FUGENE reagent. Clones that stably express both subunits were selected with hygromycin and neomycin for ˜2 weeks. The clone chosen for the assay was designated CHO-K1/sGC. CHO-K1/sGC cells were maintained in F-K12 medium containing 10% heat-inactivated Fetal Bovine Serum (FBS), 100 μg/mL penicillin/streptomycin, 0.5 mg/mL hygromycin and 0.25 mg/mL G418. The cells were then cryopreserved in liquid nitrogen. On the day of the assay, the cells were thawed and resuspended in EBSS Assay Buffer (Sigma, E3024) supplemented with 5 mM MgCl2, 10 mM HEPES (4-(2-hydroxyethyl)piperazine-1-ethanesulfonic acid) and 0.05% BSA (bovine serum albumin) and cell density was then adjusted to 2.25×10^5/mL with EAB. IBMX (3-isobutyl-1-methylxanthin, 0.5 mM) was added to inhibit degradation of cGMP. Compounds were diluted from DMSO stock solutions and added to the assay at a final DMSO concentration of 2.5%. Cells were pre-incubated in the presence and absence of 1 μM of Diethylenetriamine/nitric oxide adduct (DETA-NO; Sigma, 17018) for 30 min at 25° C. Compounds were subsequently added and incubated for 1 hr at 37° C. At the end of the incubation period, the reaction was terminated and the cells were lysed with the detection reagents from Cisbio Kits. The level of intracellular cGMP was determined using an HTRF-based assay kit (CisBio, 62GM2PEC), which detects the displacement of a fluorescence labeled cGMP from its specific antibody. The cGMP produced by test compounds was directly compared to the maximum cGMP production (this value was set to equal 100% activation) of the published sGC compound A (Example 1 in WO 2010/065275, published Jun. 10, 2010).
# The test compounds' activities were then expressed as a percentage of compound A, the standard in every experiment. This percent activation was calculated either in the presence or absence of DETA-NO which was then plotted. Inflection points (IP) and maximum fold induction was derived using Abase analysis software for 4P fit.
Ki [1] [µM],Emax (sGC α1/β1 heterodimer) [%],EC50 (sGC α1/β1 heterodimer) [µM],Structure (SMILES)
0.00263,113,0.224,"CC1(c2cccc(O)c2)C(=O)Nc2nc(-c3cn4ccnc4c(Cc4cccc(Cl)c4)n3)nc(N)c21 (stereo not drawn) [Example 124-B, 4-Amino-2-{8-[(3-chlorophenyl)methyl]-imidazo[1,2-a]pyrazin-6-yl}-5-(3-hydroxyphenyl)-5-methyl-5,7-dihydro-6H-pyrrolo[2,3-d]pyrimidin-6-one]"
0.0109,133,0.085,"CC1CCC(Cc2nc(-c3nc(N)c4c(n3)NC(=O)C4(C)c3ccc(O)c(Cl)c3)cn3ccnc23)CC1 (single isomer, unassigned) [Example 120-BA, 4-Amino-5-(3-chloro-4-hydroxyphenyl)-5-methyl-2-{8-[(4-methyl-cyclohexyl)methyl]-imidazo[1,2-a]pyrazin-6-yl}-5,7-dihydro-6H-pyrrolo[2,3-d]pyrimidin-6-one]"
0.00121,99,0.746,"CC1(c2ccc(Cl)c(O)c2)C(=O)Nc2nc(-c3cn4ccnc4c(Cc4ccc(F)cc4)n3)nc(NCC(O)C(F)(F)F)c21 (single isomer, unassigned) [Example 132-AA, 5-(4-Chloro-3-hydroxy-phenyl)-2-{8-[(4-fluoro-phenyl)methyl]imidazo-[1,2-a]pyrazin-6-yl}-5-methyl-4-[(3,3,3-trifluoro-2-hydroxy-propyl)amino]-5,7-dihydro-6H-pyrrolo-[2,3-d]-pyrimidin-6-one]"
0.000206,143,0.095,"CC1(c2cc(O)c(Cl)c(F)c2)C(=O)Nc2nc(-c3cn4ncnc4c(CC4CCCCC4)n3)nc(N)c21 (stereo not drawn) [Example 21-B, 4-Amino-5-(4-chloro-3-fluoro-5-hydroxyphenyl)-2-(8-(cyclohexylmethyl)-[1,2,4]triazolo[1,5-a]pyrazin-6-yl)-5-methyl-5,7-dihydro-6H-pyrrolo[2,3-d]pyrimidin-6-one]"
0.000155,84,1.79,"Cc1cnc(C2(C)C(=O)Nc3nc(-c4cn5ccnc5c(Cc5cccc(F)c5)n4)nc(N)c32)cc1O (stereo not drawn) [Example 151-A, 4-Amino-2-{8-(3-fluorobenzyl)imidazo[1,2-a]pyrazin-6-yl}-5-(4-hydroxy-5-methylpyridin-2-yl)-5-methyl-5,7-dihydro-6H-pyrrolo[2,3-d]pyrimidin-6-one]"
0.000173,130,0.127,"CC1(c2ccc(Cl)c(O)c2)C(=O)Nc2nc(-c3cn4ccnc4c(Cc4ccc(F)c(F)c4)n3)nc(N)c21 (stereo not drawn) [Example 20-A, 4-Amino-5-(4-chloro-3-hydroxyphenyl)-2-{8-[(3,4-difluorophenyl)methyl]imidazo[1,2-a]pyrazin-6-yl}-5-methyl-5,7-dihydro-6H-pyrrolo[2,3-d]pyrimidin-6-one]"
0.000292,88,0.866,"CC1(c2ccc(Cl)c(O)c2)C(=O)Nc2nc(-c3cn4ccnc4c(Cc4ccc(F)cc4)n3)nc(N)c21 (stereo not drawn) [Example 30-A, 4-Amino-5-(4-chloro-3-hydroxyphenyl)-2-{8-[(4-fluorophenyl)methyl]imidazo[1,2-a]pyrazin-6-yl}-5-methyl-5,7-dihydro-6H-pyrrolo[2,3-d]pyrimidin-6-one]"
0.000175,78,0.231,"CC1(c2cc(O)c(Cl)cn2)C(=O)Nc2nc(-c3cn4ccnc4c(Cc4cc(F)cc(F)c4F)n3)nc(N)c21 (stereo not drawn) [Example 103-B, 4-Amino-5-(5-chloro-4-hydroxypyridin-2-yl)-5-methyl-2-{8-[(2,3,5-trifluorophenyl)methyl]imidazo[1,2-a]pyrazin-6-yl}-5,7-dihydro-6H-pyrrolo[2,3-d]pyrimidin-6-one]"
0.00109,79,2.97,"CC1(c2cc(O)c(C#N)c(Cl)c2)C(=O)Nc2nc(-c3cn4ccnc4c(Cc4ccccc4F)n3)nc(N)c21 (stereo not drawn) [Example 143-A, 4-(4-amino-2-{8-(2-fluorobenzyl)imidazo-[1,2-a]pyrazin-6-yl}-5-methyl-6-oxo-6,7-dihydro-5H-pyrrolo-[2,3-d]pyrimidin-5-yl)-2-chloro-6-hydroxy-benzonitrile]"
0.00831,73,3.3,"CC1(c2cc(O)c(Cl)cn2)C(=O)Nc2nc(-c3cn4ccnc4c(Cc4c(F)cccc4F)n3)nc(N)c21 (stereo not drawn) [Example 98-B, 4-Amino-5-(5-chloro-4-hydroxypyridin-2-yl)-2-{8-[(2,6-difluorophenyl)methyl]imidazo[1,2-a]pyrazin-6-yl}-5-methyl-5,7-dihydro-6H-pyrrolo[2,3-d]pyrimidin-6-one]"
0.00292,96,0.046,"CCCCc1nc(-c2nc(N)c3c(n2)NC(=O)C3(C)c2cccc(O)c2)cn2ncnc12 (stereo not drawn) [Example 68-B, 4-Amino-2-(8-butyl-[1,2,4]triazolo[1,5-a]pyrazin-6-yl)-5-(3-hydroxyphenyl)-5-methyl-5,7-dihydro-6H-pyrrolo[2,3-d]pyrimidin-6-one]"
0.00998,70,0.019,"CC1(c2ccc(O)cc2)C(=O)Nc2nc(-c3cn4ncnc4c(CCC(F)(F)C(F)(F)F)n3)nc(N)c21 (stereo not drawn) [Example 80-B, 4-Amino-5-(4-hydroxyphenyl)-5-methyl-2-(8-(3,3,4,4,4-pentafluorobutyl)-[1,2,4]triazolo[1,5-a]pyrazin-6-yl)-5,7-dihydro-6H-pyrrolo[2,3-d]pyrimidin-6-one]"
0.00715,81,1.92,"CC1(c2ccc(O)c(F)c2)C(=O)Nc2nc(-c3cn4ccnc4c(CCC(F)(F)C(F)(F)F)n3)nc(N3CC(O)(C(F)(F)F)C3)c21 (stereo not drawn) [Example 130-A, 5-(3-Fluoro-4-hydroxyphenyl)-4-(3-hydroxy-3-(trifluoromethyl)azetidin-1-yl)-5-methyl-2-(8-(3,3,4,4,4-pentafluorobutyl)imidazo[1,2-a]pyrazin-6-yl)-5,7-dihydro-6H-pyrrolo[2,3-d]pyrimidin-6-one]"
0.0011,144,0.813,"CC1(c2cc(Cl)c(O)cn2)C(=O)Nc2nc(-c3cn4ccnc4c(Cc4ccccc4F)n3)nc(N)c21 (single isomer, unassigned) [Example 104-B, 4-Amino-5-(4-chloro-5-hydroxypyridin-2-yl)-2-{8-[(2-fluorophenyl)methyl]imidazo[1,2-a]pyrazin-6-yl}-5-methyl-5,7-dihydro-6H-pyrrolo[2,3-d]pyrimidin-6-one]"
0.000162,53,0.282,"CC1(c2cc(O)c(C#N)c(F)c2)C(=O)Nc2nc(-c3cn4ccnc4c(Cc4cc(F)ccc4F)n3)nc(N)c21 (stereo not drawn) [Example 101-B, 4-(4-Amino-2-{8-[(2,5-difluorophenyl)methyl]imidazo[1,2-a]pyrazin-6-yl}-5-methyl-6-oxo-6,7-dihydro-5H-pyrrolo[2,3-d]pyrimidin-5-yl)-2-fluoro-6-hydroxybenzonitrile]"
